Source: patent US20100048597A1 (Novartis AG, priority 2006, published 2010)
Like-named read-outs stand apart in the source and are kept apart here.

Legend:
CDK9/cyclinT1 = biological target: T1, CDK9/cyclinT1 (Homo sapiens, UniProt P50750); assay: CDK9/cyclinT1 kinase assay, IMAP fluorescence polarization; format: biochemical
T1 construct: purchased Millipore
How it was run: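 Recombinant purified enzyme complexes assayed by IMAP fluorescence polarization with 1% final DMSO, 2 h at room temperature; stopped with 1× Developer buffer (85% A/15% B) plus IMAP beads 1/400, then 1 h further at room temperature. IC50 from normalized mP versus log compound concentration.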

CDK1/cyclinB = biological target: T2, CDK1/cyclinB (Homo sapiens, UniProt P06493); assay: CDK1/cyclinB kinase assay, IMAP fluorescence polarization; format: biochemical
T2 construct: purchased Millipore
How it was run: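 IMAP fluorescence polarization assay on recombinant purified enzyme, compounds at final 1% DMSO. Reaction run 2 h at room temperature, stopped, held 1 h more before reading polarization.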

CDK2/cyclinA = biological target: T3, CDK2/cyclinA (Homo sapiens, UniProt P24941); assay: CDK2/cyclinA kinase assay, IMAP fluorescence polarization; format: biochemical
T3 construct: purchased Millipore
Protocol: Kinase assays were performed on recombinant purified enzymes using the non-radioactive IMAP fluorescence polarization assay format.
Compound stocks were prepared and diluted in DMSO and were added to kinase reactions at a 1/100 dilution for a final concentration of 1% DMSO. The components were added together to final concentrations listed in the tables below and incubated for two hours at room temperature.
The reactions were stopped by addition of stop solution.
CDK2: final stop concentration is 1× Developer buffer (100% A), IMAP beads 1/400
The samples were allowed to incubate for one more hour at room temperature and then the fluorescence polarization was measured. The plate normalized millipolarization (mP) values were plotted against the log of compound concentration for each compound and IC50 values were calculated using the spotfire IC50 calculator and confirmed by visual analysis.

[1] = tested on: RNA Polymerase II CTD Serine2 Phosphorylation; assay: H5 (Ser2) Ab High Content Screen: RNA Polymerase II CTD Serine2 Phosphorylation Assay in Hep3B cells; format: cell-based; conditions: Homo sapiens, 2 hours with compound, H5 antibody staining
Protocol: H5 (also referred as Ser2) Ab High Content Screen: RNA Polymerase II CTD Serine2 Phosphorylation Assay
1. Cells are plated into 384 well plates: 30 μl of Hep3B cells (4,000 cells/30 μl) in DMEM with 3% FBS are plated into wells of a tissue culture treated clear bottomed 384 well plate. Cells are allowed to adhere during an overnight incubation.
2. Cells are treated with compounds for two hours: 10 μl of DMEM with 3% FBS is added to each well with a final concentration of DMSO equal to 1%. Cells are incubated with compounds for 2 hours.
3. Cells are fixed and permeabilized. Cells are washed with 30 mM HEPES pH=7.3 then fixed in 4% paraformaldehyde in 30 mM HEPES pH=7.3 for one hour at room temperature. The fix is removed by washing the cells with Tris buffered saline (TBS) and the cells are permeabilized by incubation in TBS with 0.5% triton X-100 for 30 minutes at room temperature. Triton is removed by washing the cells with TBS.
4. […] Incubate primary H5 Ab (1/250 ) overnight at 4 degrees in TBS with 1% BSA and 0.1% Tween-20. The next day wash cells with TBS. […] Wash cells with PBS.
5. Measure staining using the In-cell Analyzer system from GE Healthcare.

CDK4 = CDK4 (Homo sapiens, UniProt P11802); assay: CDK4 kinase assay (Table F); format: biochemical
CDK5 = CDK5 (Homo sapiens, UniProt Q00535); assay: CDK5 kinase assay (Table F); format: biochemical
Chain of CDK5 (Q00535 whole entry, species assumed): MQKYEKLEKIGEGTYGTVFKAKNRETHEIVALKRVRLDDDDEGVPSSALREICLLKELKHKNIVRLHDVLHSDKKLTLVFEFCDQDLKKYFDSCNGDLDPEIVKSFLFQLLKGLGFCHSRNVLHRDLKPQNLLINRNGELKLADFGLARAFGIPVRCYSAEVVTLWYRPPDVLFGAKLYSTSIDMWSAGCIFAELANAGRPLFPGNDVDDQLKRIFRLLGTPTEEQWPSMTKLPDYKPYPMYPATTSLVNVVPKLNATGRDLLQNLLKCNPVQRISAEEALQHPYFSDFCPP
Chain of CDK5 (Q15078 whole entry partner, species assumed): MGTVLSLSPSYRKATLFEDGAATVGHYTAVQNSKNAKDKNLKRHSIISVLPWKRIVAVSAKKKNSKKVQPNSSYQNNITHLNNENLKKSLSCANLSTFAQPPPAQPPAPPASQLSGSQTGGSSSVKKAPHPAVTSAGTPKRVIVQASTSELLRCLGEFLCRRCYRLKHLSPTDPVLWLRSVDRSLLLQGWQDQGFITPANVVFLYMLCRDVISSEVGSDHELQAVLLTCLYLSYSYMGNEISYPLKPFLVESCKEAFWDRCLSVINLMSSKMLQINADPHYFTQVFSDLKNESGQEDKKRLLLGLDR

Chain of CDK4 (P11802 whole entry, species assumed): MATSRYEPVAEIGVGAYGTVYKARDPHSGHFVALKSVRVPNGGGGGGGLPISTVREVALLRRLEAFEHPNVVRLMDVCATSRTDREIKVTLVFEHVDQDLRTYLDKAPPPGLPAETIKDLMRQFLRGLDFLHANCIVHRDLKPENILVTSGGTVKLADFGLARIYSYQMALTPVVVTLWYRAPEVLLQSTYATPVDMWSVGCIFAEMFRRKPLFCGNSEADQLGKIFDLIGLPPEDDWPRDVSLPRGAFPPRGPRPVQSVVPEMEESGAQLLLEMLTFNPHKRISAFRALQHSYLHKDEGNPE
Chain of CDK4 (P24385 whole entry partner, species assumed): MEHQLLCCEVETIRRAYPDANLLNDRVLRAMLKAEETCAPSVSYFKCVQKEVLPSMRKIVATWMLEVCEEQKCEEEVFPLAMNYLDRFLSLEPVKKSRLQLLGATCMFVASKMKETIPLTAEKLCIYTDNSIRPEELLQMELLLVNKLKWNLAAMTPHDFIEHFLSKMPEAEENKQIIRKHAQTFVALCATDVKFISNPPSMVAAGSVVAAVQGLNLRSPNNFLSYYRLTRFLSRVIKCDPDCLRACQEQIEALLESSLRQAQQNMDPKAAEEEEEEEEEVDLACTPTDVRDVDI
T2 sequence (P06493 whole entry): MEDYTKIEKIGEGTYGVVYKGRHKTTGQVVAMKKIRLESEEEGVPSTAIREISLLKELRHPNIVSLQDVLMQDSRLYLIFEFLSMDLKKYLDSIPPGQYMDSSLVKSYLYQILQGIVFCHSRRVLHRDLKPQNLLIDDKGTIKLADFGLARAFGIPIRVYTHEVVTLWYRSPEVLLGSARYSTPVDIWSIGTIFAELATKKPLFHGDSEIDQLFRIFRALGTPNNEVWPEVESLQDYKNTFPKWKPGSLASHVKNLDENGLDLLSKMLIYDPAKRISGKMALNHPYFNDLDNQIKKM
T2 sequence (P14635 whole entry partner): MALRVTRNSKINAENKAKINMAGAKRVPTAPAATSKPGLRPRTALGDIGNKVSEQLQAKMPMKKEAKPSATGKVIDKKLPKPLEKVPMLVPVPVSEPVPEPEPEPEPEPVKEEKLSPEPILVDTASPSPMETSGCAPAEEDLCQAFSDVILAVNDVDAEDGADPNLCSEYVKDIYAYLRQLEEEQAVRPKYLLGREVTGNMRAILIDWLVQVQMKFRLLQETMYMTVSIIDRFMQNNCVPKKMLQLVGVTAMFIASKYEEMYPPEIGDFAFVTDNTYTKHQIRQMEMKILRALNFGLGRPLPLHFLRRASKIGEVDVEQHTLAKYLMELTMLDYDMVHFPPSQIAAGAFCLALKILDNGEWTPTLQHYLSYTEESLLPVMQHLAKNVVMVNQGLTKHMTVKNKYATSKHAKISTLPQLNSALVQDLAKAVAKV
T1 sequence (P50750 whole entry): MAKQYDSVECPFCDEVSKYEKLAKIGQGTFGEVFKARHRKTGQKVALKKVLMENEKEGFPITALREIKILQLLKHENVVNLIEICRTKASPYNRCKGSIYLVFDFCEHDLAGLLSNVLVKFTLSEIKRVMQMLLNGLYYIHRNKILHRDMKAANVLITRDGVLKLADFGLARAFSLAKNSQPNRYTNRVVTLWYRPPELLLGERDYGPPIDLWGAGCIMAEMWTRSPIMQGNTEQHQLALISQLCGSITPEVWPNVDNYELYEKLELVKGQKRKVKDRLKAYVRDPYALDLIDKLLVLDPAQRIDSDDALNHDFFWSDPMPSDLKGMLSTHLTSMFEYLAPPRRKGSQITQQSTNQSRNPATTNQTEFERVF
T1 sequence (O60563 whole entry partner): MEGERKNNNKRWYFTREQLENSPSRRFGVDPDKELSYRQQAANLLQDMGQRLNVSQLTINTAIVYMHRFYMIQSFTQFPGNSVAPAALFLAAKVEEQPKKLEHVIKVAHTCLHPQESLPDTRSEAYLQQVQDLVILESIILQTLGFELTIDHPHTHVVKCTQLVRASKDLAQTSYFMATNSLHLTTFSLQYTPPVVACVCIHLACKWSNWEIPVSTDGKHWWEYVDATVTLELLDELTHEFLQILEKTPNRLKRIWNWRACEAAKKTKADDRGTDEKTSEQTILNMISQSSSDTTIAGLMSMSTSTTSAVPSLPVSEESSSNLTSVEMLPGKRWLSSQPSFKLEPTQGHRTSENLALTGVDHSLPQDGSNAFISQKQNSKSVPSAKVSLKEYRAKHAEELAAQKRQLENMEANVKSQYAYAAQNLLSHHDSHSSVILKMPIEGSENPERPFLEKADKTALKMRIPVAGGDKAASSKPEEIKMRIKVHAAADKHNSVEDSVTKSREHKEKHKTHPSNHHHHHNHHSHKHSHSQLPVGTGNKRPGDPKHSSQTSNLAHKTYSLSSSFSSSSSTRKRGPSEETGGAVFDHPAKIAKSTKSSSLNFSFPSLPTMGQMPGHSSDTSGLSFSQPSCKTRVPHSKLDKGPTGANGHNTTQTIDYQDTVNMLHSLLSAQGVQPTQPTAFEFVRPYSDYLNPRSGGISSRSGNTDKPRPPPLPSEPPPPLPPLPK

For `Cc1c(-c2ccnc(Nc3cccc(Cl)c3)n2)ccnc1Cl` [Compound 2, [4-(2-Chloro-3-methyl-pyridin-4-yl)-pyrimidin-2-yl]-(3-chloro-phenyl)-amine], the IC50 (CDK9/cyclinT1) was < 5 µM, the IC50 (CDK1/cyclinB; read-out: CDK1 IC50) was > 50 µM and the IC50 (CDK2/cyclinA) was > 50 µM. For the same compound, the IC50 [1] was > 50 µM.
For `Cc1c(-c2ccnc(Nc3cccc(Cl)c3)n2)ccnc1NCc1ccccc1` [Compound 21, [4-(2-Benzylamino-3-methyl-pyridin-4-yl)-pyrimidin-2-yl]-(3-chloro-phenyl)-amine], the IC50 (CDK9/cyclinT1) was < 5 µM, the IC50 (CDK1/cyclinB; read-out: CDK1 IC50) was < 5 µM and the IC50 (CDK2/cyclinA) was < 5 µM. It also gave an IC50 [1] of 5 to 15 µM.
For `Cc1c(-c2ccnc(Nc3cccc(Cl)c3)n2)ccnc1NCCCN1CCOCC1` [Compound 22, (3-Chloro-phenyl)-{4-[3-methyl-2-(3-morpholin-4-yl-propylamino)-pyridin-4-yl]-pyrimidin-2-yl}-amine], the IC50 (CDK9/cyclinT1) was < 5 µM, the IC50 (CDK1/cyclinB; read-out: CDK1 IC50) was 5 to 15 µM and the IC50 (CDK2/cyclinA) was < 5 µM. It also gave an IC50 [1] of 5 to 15 µM.
For `Cc1c(-c2ccnc(Nc3cccc(Cl)c3)n2)ccnc1NCCCn1ccnc1` [Compound 23, (3-Chloro-phenyl)-{4-[2-(3-imidazol-1-yl-propylamino)-3-methyl-pyridin-4-yl]-pyrimidin-2-yl}-amine], the IC50 (CDK9/cyclinT1) was < 5 µM, the IC50 (CDK1/cyclinB; read-out: CDK1 IC50) was 5 to 15 µM and the IC50 (CDK2/cyclinA) was < 5 µM. The IC50 [1] was 5 to 15 µM, the IC50 (CDK4) was 15 to 50 µM and the IC50 (CDK5) was < 5 µM.
In the case of `Cc1c(-c2ccnc(Nc3cccc(Cl)c3)n2)ccnc1NCCCN1CCCC1=O` [Compound 24, 1-(3-{4-[2-(3-Chloro-phenylamino)-pyrimidin-4-yl]-3-methyl-pyridin-2-ylamino}-propyl)-pyrrolidin-2-one], the IC50 (CDK9/cyclinT1) is reported as < 5 µM, the IC50 (CDK1/cyclinB; read-out: CDK1 IC50) is reported as 5 to 15 µM and the IC50 (CDK2/cyclinA) is reported as < 5 µM. It also gave an IC50 [1] of 15 to 50 µM and an IC50 (CDK5) of 5 to 15 µM.
In the case of `CC(=O)NCCCNc1cc(-c2ccnc(Nc3cccc(Cl)c3)n2)cc(C)n1` [Compound 42, N-(3-{4-[2-(3-Chloro-phenylamino)-pyrimidin-4-yl]-6-methyl-pyridin-2-ylamino}-propyl)-acetamide], the IC50 (CDK9/cyclinT1) is reported as < 5 µM, the IC50 (CDK1/cyclinB; read-out: CDK1 IC50) is reported as < 5 µM and the IC50 (CDK2/cyclinA) is reported as < 5 µM. The IC50 [1] was < 5 µM.
For `Clc1cccc(Nc2nccc(-c3ccnc4ccccc34)n2)c1` [Compound 48, (3-Chloro-phenyl)-(4-quinolin-4-yl-pyrimidin-2-yl)-amine], the IC50 (CDK9/cyclinT1) was < 5 µM, the IC50 (CDK1/cyclinB; read-out: CDK1 IC50) was < 5 µM and the IC50 [1] was < 5 µM. For the same compound, the IC50 (CDK4) was 5 to 15 µM and the IC50 (CDK5) was < 5 µM.
For `CS(=O)(=O)c1cccc(Nc2nccc(-c3cccnc3NCCCN)n2)c1` [Compound 58, N-{3-[2-(3-Methanesulfonyl-phenylamino)-pyrimidin-4-yl]-pyridin-2-yl}-propane-1,3-diamine], the IC50 (CDK9/cyclinT1) was < 5 µM, the IC50 (CDK1/cyclinB; read-out: CDK1 IC50) was < 5 µM and the IC50 (CDK2/cyclinA) was < 5 µM. For the same compound, the IC50 [1] was < 5 µM, the IC50 (CDK4) was < 5 µM and the IC50 (CDK5) was < 5 µM.
In the case of `NCCCNc1ncccc1-c1ccnc(Nc2cccc(S(N)(=O)=O)c2)n1` [Compound 59, 3-{4-[2-(3-Amino-propylamino)-pyridin-3-yl]-pyrimidin-2-ylamino}-benzenesulfonamide], the IC50 (CDK9/cyclinT1) is reported as < 5 µM, the IC50 (CDK1/cyclinB; read-out: CDK1 IC50) is reported as < 5 µM and the IC50 (CDK2/cyclinA) is reported as < 5 µM. For the same compound, the IC50 [1] was 15 to 50 µM, the IC50 (CDK4) was 5 to 15 µM and the IC50 (CDK5) was < 5 µM.
With `CC(=O)NCCCNc1ncccc1-c1ccnc(Nc2cccc(Cl)c2)n1` [Compound 65, N-(3-{3-[2-(3-Chloro-phenylamino)-pyrimidin-4-yl]-pyridin-2-ylamino}-propyl)-acetamide] the IC50 (CDK9/cyclinT1) was < 5 µM, the IC50 (CDK1/cyclinB; read-out: CDK1 IC50) was < 5 µM and the IC50 (CDK2/cyclinA) was < 5 µM. The IC50 [1] was < 5 µM, the IC50 (CDK4) was 15 to 50 µM and the IC50 (CDK5) was < 5 µM.
With `CC(=O)NCCCNc1ncccc1-c1ccnc(Nc2cccc(S(C)(=O)=O)c2)n1` [Compound 67, N-(3-{3-[2-(3-Methanesulfonyl-phenylamino)-pyrimidin-4-yl]-pyridin-2-ylamino}-propyl)-acetamide] the IC50 (CDK9/cyclinT1) was < 5 µM, the IC50 (CDK1/cyclinB; read-out: CDK1 IC50) was > 50 µM and the IC50 (CDK2/cyclinA) was 5 to 15 µM. The IC50 (CDK4) was 15 to 50 µM and the IC50 (CDK5) was 5 to 15 µM.
`CC(=O)NCCCNc1ncccc1-c1ccnc(Nc2cccc(S(N)(=O)=O)c2)n1` [Compound 68, N-(3-{3-[2-(3-Sulfamoyl-phenylamino)-pyrimidin-4-yl]-pyridin-2-ylamino}-propyl)-acetamide] was tested, and the IC50 (CDK9/cyclinT1) was < 5 µM, the IC50 (CDK1/cyclinB; read-out: CDK1 IC50) was < 5 µM and the IC50 (CDK2/cyclinA) was < 5 µM. For the same compound, the IC50 (CDK4) was 15 to 50 µM and the IC50 (CDK5) was < 5 µM.
With `CC(=O)NCCCNc1ncccc1-c1ccnc(Nc2cccc(C#N)c2)n1` [Compound 69, N-(3-{3-[2-(3-Cyano-phenylamino)-pyrimidin-4-yl]-pyridin-2-ylamino}-propyl)-acetamide] the IC50 (CDK9/cyclinT1) was < 5 µM, the IC50 (CDK1/cyclinB; read-out: CDK1 IC50) was < 5 µM and the IC50 (CDK2/cyclinA) was < 5 µM. For the same compound, the IC50 (CDK4) was 15 to 50 µM and the IC50 (CDK5) was < 5 µM.
With `Clc1cccc(Nc2nccc(-c3cccnc3NCCc3c[nH]cn3)n2)c1` [Compound 79] the IC50 (CDK9/cyclinT1) was < 5 µM, the IC50 (CDK1/cyclinB; read-out: CDK1 IC50) was < 5 µM and the IC50 (CDK2/cyclinA) was < 5 µM. For the same compound, the IC50 (CDK4) was 15 to 50 µM and the IC50 (CDK5) was < 5 µM.
With `NS(=O)(=O)c1cccc(Nc2nccc(-c3cccnc3NCCCn3ccnc3)n2)c1` [Compound 83, 3-{4-[2-(3-Imidazol-1-yl-propylamino)-pyridin-3-yl]-pyrimidin-2-ylamino}-benzenesulfonamide] the IC50 (CDK9/cyclinT1) was < 5 µM, the IC50 (CDK1/cyclinB; read-out: CDK1 IC50) was < 5 µM and the IC50 (CDK2/cyclinA) was < 5 µM. For the same compound, the IC50 (CDK4) was 15 to 50 µM and the IC50 (CDK5) was < 5 µM.
In the case of `CCCCNS(=O)(=O)c1cccc(Nc2nccc(-c3cccnc3OC)n2)c1` [Compound 102, N-Butyl-3-[4-(2-methoxy-pyridin-3-yl)-pyrimidin-2-ylamino]-benzenesulfonamide], the IC50 (CDK9/cyclinT1) is reported as < 5 µM, the IC50 (CDK1/cyclinB; read-out: CDK1 IC50) is reported as < 5 µM and the IC50 (CDK2/cyclinA) is reported as < 5 µM. The IC50 [1] was 15 to 50 µM.
With `CCN(CC)S(=O)(=O)c1cccc(Nc2nccc(-c3cccnc3OC)n2)c1` [Compound 105, N,N-Diethyl-3-[4-(2-methoxy-pyridin-3-yl)-pyrimidin-2-ylamino]-benzenesulfonamide] the IC50 (CDK9/cyclinT1) was > 50 µM, the IC50 (CDK1/cyclinB; read-out: CDK1 IC50) was > 50 µM and the IC50 (CDK2/cyclinA) was > 50 µM. For the same compound, the IC50 (CDK4) was 15 to 50 µM and the IC50 (CDK5) was 5 to 15 µM.
In the case of `COc1ncccc1-c1ccnc(Nc2cccc(-c3cnco3)c2)n1` [Compound 110, [4-(2-Methoxy-pyridin-3-yl)-pyrimidin-2-yl]-(3-oxazol-5-yl-phenyl)-amine], the IC50 (CDK9/cyclinT1) is reported as < 5 µM, the IC50 (CDK1/cyclinB; read-out: CDK1 IC50) is reported as < 5 µM and the IC50 (CDK2/cyclinA) is reported as < 5 µM. The IC50 [1] was < 5 µM.
In the case of `COc1ncccc1-c1ccnc(Nc2ccc3cn[nH]c3c2)n1` [Compound 112, (1H-Indazol-6-yl)-[4-(2-methoxy-pyridin-3-yl)-pyrimidin-2-yl]-amine], the IC50 (CDK9/cyclinT1) is reported as < 5 µM, the IC50 (CDK1/cyclinB) is reported as < 5 µM and the IC50 (CDK2/cyclinA) is reported as < 5 µM. For the same compound, the IC50 [1] was < 5 µM.
In the case of `COc1ncccc1-c1ccnc(Nc2ccc(N3CCN(C)CC3)cc2)n1` [Compound 117, [4-(2-Methoxy-pyridin-3-yl)-pyrimidin-2-yl]-[4-(4-methyl-piperazin-1-yl)-phenyl]-amine], the IC50 (CDK9/cyclinT1) is reported as < 5 µM, the IC50 (CDK1/cyclinB; read-out: CDK1 IC50) is reported as 5 to 15 µM and the IC50 (CDK2/cyclinA) is reported as < 5 µM. The IC50 (CDK4) was < 5 µM and the IC50 (CDK5) was < 5 µM.
For `NCCCOc1ncccc1-c1ccnc(Nc2cccc(Cl)c2)n1` [Compound 120, {4-[2-(3-Amino-propoxy)-pyridin-3-yl]-pyrimidin-2-yl}-(3-chloro-phenyl)-amine], the IC50 (CDK9/cyclinT1) was < 5 µM, the IC50 (CDK1/cyclinB; read-out: CDK1 IC50) was < 5 µM and the IC50 (CDK2/cyclinA) was 15 to 50 µM. The IC50 (CDK4) was 15 to 50 µM and the IC50 (CDK5) was < 5 µM.
With `CC(=O)NCCCOc1ncccc1-c1ccnc(Nc2cccc(Cl)c2)n1` [Compound 121, N-(3-{3-[2-(3-Chloro-phenylamino)-pyrimidin-4-yl]-pyridin-2-yloxy}-propyl)-acetamide] the IC50 (CDK9/cyclinT1) was < 5 µM, the IC50 (CDK1/cyclinB; read-out: CDK1 IC50) was 5 to 15 µM and the IC50 (CDK2/cyclinA) was 15 to 50 µM. The IC50 (CDK4) was 15 to 50 µM and the IC50 (CDK5) was 15 to 50 µM.
